pIC50: −log10 of the molar value.
Legend:
[1] = target: Phosphatidylinositol 4,5-bisphosphate 3-kinase catalytic subunit alpha isoform (Homo sapiens, UniProt P42336); experiment: Inhibition of wild type his-tagged PI3Kalpha (unknown origin)
[2] = target: Phosphatidylinositol 4,5-bisphosphate 3-kinase catalytic subunit alpha isoform (Homo sapiens, UniProt P42336, H1047R); experiment: Inhibition of PI3Kalpha H1047R mutant (unknown origin)
[3] = target: Phosphatidylinositol 4,5-bisphosphate 3-kinase catalytic subunit beta isoform (Homo sapiens, UniProt P42338); experiment: Inhibition of PI3Kbeta (unknown origin)
Chain of Phosphatidylinositol 4,5-bisphosphate 3-kinase catalytic subunit beta isoform (P42338 whole entry, canonical isoform): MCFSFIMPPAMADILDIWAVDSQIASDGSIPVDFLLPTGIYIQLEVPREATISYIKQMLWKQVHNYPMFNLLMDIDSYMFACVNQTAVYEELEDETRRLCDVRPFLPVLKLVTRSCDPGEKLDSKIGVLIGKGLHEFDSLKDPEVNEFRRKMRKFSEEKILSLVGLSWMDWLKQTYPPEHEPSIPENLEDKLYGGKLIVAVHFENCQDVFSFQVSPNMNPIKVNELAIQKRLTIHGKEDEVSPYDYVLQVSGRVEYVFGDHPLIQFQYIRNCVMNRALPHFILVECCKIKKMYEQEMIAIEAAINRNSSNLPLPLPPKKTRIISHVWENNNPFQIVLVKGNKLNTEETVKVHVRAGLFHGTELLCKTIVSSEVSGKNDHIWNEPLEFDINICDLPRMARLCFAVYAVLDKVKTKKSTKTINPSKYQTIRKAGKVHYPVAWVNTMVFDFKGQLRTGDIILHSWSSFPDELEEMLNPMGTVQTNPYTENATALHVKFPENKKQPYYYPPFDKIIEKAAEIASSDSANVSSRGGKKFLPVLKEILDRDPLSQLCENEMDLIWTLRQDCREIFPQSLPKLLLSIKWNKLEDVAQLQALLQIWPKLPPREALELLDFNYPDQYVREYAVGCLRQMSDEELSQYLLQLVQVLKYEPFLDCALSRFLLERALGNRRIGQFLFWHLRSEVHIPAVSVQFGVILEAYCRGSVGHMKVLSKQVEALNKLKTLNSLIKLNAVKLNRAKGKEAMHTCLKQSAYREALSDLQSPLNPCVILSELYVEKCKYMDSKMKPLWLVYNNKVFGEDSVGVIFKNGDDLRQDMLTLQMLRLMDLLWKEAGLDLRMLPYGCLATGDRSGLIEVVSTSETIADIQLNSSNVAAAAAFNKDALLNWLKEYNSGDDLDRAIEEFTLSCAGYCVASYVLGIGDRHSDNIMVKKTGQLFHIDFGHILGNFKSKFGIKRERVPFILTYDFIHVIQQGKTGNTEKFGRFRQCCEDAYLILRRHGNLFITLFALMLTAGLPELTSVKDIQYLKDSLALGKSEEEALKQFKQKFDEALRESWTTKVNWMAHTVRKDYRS

[4] = target: T1, Phosphatidylinositol 4,5-bisphosphate 3-kinase catalytic subunit delta isoform (Homo sapiens, UniProt O00329); experiment: Inhibition of PI3Kdelta (unknown origin)
T1 sequence (O00329 whole entry): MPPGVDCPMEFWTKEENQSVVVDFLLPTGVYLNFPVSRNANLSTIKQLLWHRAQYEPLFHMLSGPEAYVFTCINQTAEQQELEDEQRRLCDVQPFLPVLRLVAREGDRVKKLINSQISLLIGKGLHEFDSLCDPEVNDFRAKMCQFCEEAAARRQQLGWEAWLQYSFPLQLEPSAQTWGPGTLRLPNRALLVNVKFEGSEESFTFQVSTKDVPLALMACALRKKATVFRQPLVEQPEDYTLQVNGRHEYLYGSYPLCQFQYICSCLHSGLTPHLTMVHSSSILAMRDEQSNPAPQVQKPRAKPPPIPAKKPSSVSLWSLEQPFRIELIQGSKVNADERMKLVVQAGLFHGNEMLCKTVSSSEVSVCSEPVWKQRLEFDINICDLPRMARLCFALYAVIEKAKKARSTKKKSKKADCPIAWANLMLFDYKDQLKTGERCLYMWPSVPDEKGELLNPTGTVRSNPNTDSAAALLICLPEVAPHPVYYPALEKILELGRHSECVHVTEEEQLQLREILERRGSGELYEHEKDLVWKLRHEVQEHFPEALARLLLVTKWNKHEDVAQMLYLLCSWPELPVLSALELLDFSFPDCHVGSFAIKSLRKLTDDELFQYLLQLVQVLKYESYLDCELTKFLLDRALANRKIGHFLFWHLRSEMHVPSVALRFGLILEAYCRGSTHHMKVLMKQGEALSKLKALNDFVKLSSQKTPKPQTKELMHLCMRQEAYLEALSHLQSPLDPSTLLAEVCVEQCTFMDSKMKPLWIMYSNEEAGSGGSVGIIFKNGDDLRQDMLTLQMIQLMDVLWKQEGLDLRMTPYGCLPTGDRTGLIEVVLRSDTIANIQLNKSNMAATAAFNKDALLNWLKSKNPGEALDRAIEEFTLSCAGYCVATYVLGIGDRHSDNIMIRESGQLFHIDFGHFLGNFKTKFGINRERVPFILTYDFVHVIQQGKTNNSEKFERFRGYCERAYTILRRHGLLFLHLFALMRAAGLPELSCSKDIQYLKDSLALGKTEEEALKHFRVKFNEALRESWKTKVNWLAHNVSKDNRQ

[5] = target: Phosphatidylinositol 4,5-bisphosphate 3-kinase catalytic subunit gamma isoform (Homo sapiens, UniProt P48736); experiment: Inhibition of PI3Kgamma (unknown origin)
Chain of Phosphatidylinositol 4,5-bisphosphate 3-kinase catalytic subunit gamma isoform (P48736 whole entry, canonical isoform): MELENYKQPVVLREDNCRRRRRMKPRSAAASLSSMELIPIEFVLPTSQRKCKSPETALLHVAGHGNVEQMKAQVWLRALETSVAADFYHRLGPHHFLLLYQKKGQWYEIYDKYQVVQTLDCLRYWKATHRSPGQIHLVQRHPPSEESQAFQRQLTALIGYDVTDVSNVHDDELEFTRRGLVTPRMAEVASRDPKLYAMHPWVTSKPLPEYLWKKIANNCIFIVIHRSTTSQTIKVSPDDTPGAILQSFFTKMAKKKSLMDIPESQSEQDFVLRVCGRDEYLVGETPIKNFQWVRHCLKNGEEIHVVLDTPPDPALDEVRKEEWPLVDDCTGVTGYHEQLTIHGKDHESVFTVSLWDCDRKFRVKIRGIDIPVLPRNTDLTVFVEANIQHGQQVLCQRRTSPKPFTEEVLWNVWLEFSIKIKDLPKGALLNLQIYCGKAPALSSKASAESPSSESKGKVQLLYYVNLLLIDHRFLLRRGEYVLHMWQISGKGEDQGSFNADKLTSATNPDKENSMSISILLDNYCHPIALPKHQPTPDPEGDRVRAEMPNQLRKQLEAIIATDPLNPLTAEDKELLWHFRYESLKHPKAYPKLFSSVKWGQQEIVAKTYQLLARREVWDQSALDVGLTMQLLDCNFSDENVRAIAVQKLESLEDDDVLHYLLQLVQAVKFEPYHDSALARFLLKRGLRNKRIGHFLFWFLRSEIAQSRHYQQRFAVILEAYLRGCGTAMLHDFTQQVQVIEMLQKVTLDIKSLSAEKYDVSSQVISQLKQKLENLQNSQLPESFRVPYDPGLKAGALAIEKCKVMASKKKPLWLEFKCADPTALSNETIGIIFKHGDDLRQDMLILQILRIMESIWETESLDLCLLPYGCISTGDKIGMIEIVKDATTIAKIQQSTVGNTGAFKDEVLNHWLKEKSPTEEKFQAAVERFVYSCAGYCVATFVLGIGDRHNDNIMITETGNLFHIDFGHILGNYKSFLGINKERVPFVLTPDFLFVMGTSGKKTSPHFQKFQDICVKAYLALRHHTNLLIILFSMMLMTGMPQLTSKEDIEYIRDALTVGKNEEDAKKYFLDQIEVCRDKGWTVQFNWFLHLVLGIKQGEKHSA

Homo sapiens [6] = organism: Homo sapiens; experiment: Selectivity ratio of IC50 for PI3Kbeta (unknown origin) to IC50 for wild type his-tagged PI3Kalpha (unknown origin)
Homo sapiens [7] = organism: Homo sapiens; experiment: Selectivity ratio of IC50 for PI3Kdelta (unknown origin) to IC50 for wild type his-tagged PI3Kalpha (unknown origin)

Chain of Phosphatidylinositol 4,5-bisphosphate 3-kinase catalytic subunit alpha isoform (Homo sapiens, UniProt P42336) (P42336 whole entry, canonical isoform): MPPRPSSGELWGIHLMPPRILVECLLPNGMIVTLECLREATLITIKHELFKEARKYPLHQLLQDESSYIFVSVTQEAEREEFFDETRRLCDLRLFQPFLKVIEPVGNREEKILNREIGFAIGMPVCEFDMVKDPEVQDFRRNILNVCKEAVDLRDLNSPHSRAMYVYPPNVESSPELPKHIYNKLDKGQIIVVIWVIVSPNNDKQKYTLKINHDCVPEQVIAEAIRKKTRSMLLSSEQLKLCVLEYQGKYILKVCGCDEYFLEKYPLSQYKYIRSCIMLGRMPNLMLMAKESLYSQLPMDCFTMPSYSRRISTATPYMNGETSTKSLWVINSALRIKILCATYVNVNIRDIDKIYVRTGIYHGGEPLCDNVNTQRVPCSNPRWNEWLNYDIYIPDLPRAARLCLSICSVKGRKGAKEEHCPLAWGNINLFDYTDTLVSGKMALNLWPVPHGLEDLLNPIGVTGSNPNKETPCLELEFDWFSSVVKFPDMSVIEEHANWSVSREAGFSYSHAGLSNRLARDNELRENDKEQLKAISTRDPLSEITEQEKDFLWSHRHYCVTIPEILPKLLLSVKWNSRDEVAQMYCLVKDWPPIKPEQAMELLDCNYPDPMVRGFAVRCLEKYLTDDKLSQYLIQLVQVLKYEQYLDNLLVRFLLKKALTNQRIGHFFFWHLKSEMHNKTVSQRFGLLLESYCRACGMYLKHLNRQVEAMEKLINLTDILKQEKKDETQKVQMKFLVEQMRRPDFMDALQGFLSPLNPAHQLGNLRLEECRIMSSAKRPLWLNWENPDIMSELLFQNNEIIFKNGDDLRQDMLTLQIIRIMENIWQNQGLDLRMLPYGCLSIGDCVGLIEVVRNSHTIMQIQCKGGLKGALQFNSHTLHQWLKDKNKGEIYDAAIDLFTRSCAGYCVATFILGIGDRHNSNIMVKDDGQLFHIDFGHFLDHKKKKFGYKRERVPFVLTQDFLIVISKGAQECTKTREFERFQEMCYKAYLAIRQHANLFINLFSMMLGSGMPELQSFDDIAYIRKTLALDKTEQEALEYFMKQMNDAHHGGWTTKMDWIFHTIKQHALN
Chain of Phosphatidylinositol 4,5-bisphosphate 3-kinase catalytic subunit alpha isoform (Homo sapiens, UniProt P42336, H1047R) (P42336 whole entry H1047R, canonical isoform): as the sequence (P42336 whole entry, canonical isoform) above, with H1047R counted along it

SMILES	pIC50 [1]	pIC50 [2]	pIC50 [3]	pIC50 [4]	pIC50 [5]	Ratio IC50 (Homo sapiens [6])	Ratio IC50 (Homo sapiens [7])
COC(=O)c1cc(CNc2ccc(S(=O)(=O)Nc3nnc(C)s3)cc2)cc(-c2ccc(OC)nc2)c1	7.34	7.52					
COc1ccc(-c2cccc(CNc3ccc(S(=O)(=O)Nc4nnc(C)s4)cc3)c2)cn1	6.99		6.12	7.36	7.28		
COc1ccc(-c2cc(CNc3ccc(S(=O)(=O)Nc4nnc(C)s4)cc3)cc(C(=O)NC(CO)CO)c2)cn1	7.80	7.80	6.10	7.70	7.60		
COc1ccc(-c2cc(CNc3ccc(S(=O)(=O)N(C)c4nnc(C)s4)cc3)cc(C(=O)NCCc3ccccc3F)c2)cn1	5.70	< 5.00	< 5.00	5.70	< 5.00		
COc1ccc(-c2cc(CNc3ccc(S(=O)(=O)Nc4nnc(C)s4)cc3)cc(C(=O)NCCC(C)C)c2)cn1	8.02	7.96	6.40	8.40	8.00		
Cc1nnc(NS(=O)(=O)c2ccc(NCc3cc(C(=O)O)cc(-c4ccc5c(c4)OCCO5)c3)cc2)s1	7.90		6.90	7.20	8.70	5	5
COc1ccc(-c2cc(CNc3ccc(S(=O)(=O)Nc4nnc(C)s4)cc3)cc(C(=O)NCCc3ccccc3F)c2)cn1	8.19	7.89	6.15	8.00	8.36		
Cc1nnc(NS(=O)(=O)c2ccc(NCc3cc(C(=O)O)cc(-c4ccc5c(c4)OCO5)c3)cc2)s1	7.40		6.30	6.70	8.40	5	5
COc1ccc(-c2cc(CNc3ccc(S(=O)(=O)Nc4nnc(C)s4)cc3)cc(C(=O)O)c2)cn1	8.00	8.07	6.83	7.23	8.59	5	5
COC(=O)c1cc(I)cc(CNc2ccc(S(=O)(=O)Nc3nnc(C)s3)cc2)c1	< 4.60	4.89					

— ChEMBL document CHEMBL3580636, “Discovery of a Potent Class of PI3Kα Inhibitors with Unique Binding Mode via Encoded Library Technology (ELT)” (ACS Med Chem Lett, 2015)
